Test results taken from the supplement of paper PMC10307832.

What was measured:
Experiment in all cases: relative viability (nuclei count vs DMSO), 5 days (fraction); higher = more cells survive
[1] = compound: CC1=CN=C(N=C1C2=CNC(=C2)C(=O)N[C@H](CO)C3=CC(=CC=C3)Cl)NC4=C(C=C(C=C4)F)Cl [VX-11e] + O=C(CCCCCCC(=O)Nc1ccccc1)NO [Vorinostat] (partner 1 µM)
Method in brief: (§1)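 Relative viability is defined as nuclei in treated wells over nuclei in vehicle wells. Duplicate plates were run and medians reported. Lung cancer cell lines in 1536-well plates were dosed by pin tool one day after seeding, with one drug or with a fixed anchor-drug dose plus five library-drug doses (not always all listed) in √10 steps, and nuclei were counted after 5 days.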

[2] = compound: CC1=CN=C(N=C1C2=CNC(=C2)C(=O)N[C@H](CO)C3=CC(=CC=C3)Cl)NC4=C(C=C(C=C4)F)Cl [VX-11e] + C[C@@H](Oc1cc(-c2cnn(C3CCNCC3)c2)cnc1N)c1c(Cl)ccc(F)c1Cl [Crizotinib] (partner 1 µM)
Method in brief: as §1

[3] = compound: CC1=CN=C(N=C1C2=CNC(=C2)C(=O)N[C@H](CO)C3=CC(=CC=C3)Cl)NC4=C(C=C(C=C4)F)Cl [VX-11e] + Cc1cc(Nc2cc(N3CCN(C)CC3)nc(Sc3ccc(NC(=O)C4CC4)cc3)n2)n[nH]1 [Tozasertib] (partner 0.1 µM)
Method in brief: as §1

[4] = compound: CC1=CN=C(N=C1C2=CNC(=C2)C(=O)N[C@H](CO)C3=CC(=CC=C3)Cl)NC4=C(C=C(C=C4)F)Cl [VX-11e] + CC1(C)CCC(c2ccc(Cl)cc2)=C(CN2CCN(c3ccc(C(=O)NS(=O)(=O)c4ccc(N[C@H](CCN5CCOCC5)CSc5ccccc5)c(S(=O)(=O)C(F)(F)F)c4)cc3)CC2)C1 [Navitoclax] (partner 0.5 µM)
Method in brief: as §1

Row | Cell Line | relative viability ([1]; first compound 0.04 µM) | relative viability ([1]; first compound 0.1265 µM) | relative viability ([1]; first compound 0.4 µM) | relative viability ([1]; first compound 1.265 µM) | relative viability ([1]; first compound 4 µM) | relative viability ([2]; first compound 0.04 µM) | relative viability ([2]; first compound 0.1265 µM) | relative viability ([2]; first compound 0.4 µM) | relative viability ([2]; first compound 1.265 µM) | relative viability ([2]; first compound 4 µM) | relative viability ([3]; first compound 0.04 µM) | relative viability ([3]; first compound 0.1265 µM) | relative viability ([3]; first compound 0.4 µM) | relative viability ([3]; first compound 1.265 µM) | relative viability ([3]; first compound 4 µM) | relative viability ([4]; first compound 0.04 µM) | relative viability ([4]; first compound 0.1265 µM) | relative viability ([4]; first compound 0.4 µM) | relative viability ([4]; first compound 1.265 µM) | relative viability ([4]; first compound 4 µM)
1 | NCI-H2009 | 0.794 | 0.604 | 0.638 | 0.791 | 0.233 | 1.07 | 1.04 | 0.933 | 0.565 | 0.364 | 0.714 | 0.64 | 0.591 | 0.4 | 0.171 | 1.17 | 1.14 | 1.2 | 0.938 | 0.289
2 | BEN | 0.572 | 0.564 | 0.55 | 0.525 | 0.504 | 0.953 | 0.723 | 0.941 | 0.575 | 0.828 |  | 0.477 | 0.642 | 0.456 | 0.417 | 0.0581 | 0.0703 | 0.0708 | 0.061 | 0.0537
3 | NCI-H1734 | 0.71 | 0.779 | 0.593 | 0.449 | 0.341 | 0.67 | 0.584 | 0.652 | 0.606 | 0.296 | 0.289 | 0.209 | 0.234 | 0.23 | 0.192 | 0.787 | 0.796 | 0.685 | 0.652 | 0.245
4 | NCI-H3122 | 0.85 | 0.885 | 0.684 | 0.987 | 0.589 | 0.302 | 0.288 | 0.275 | 0.35 | 0.226 | 0.452 | 0.413 |  | 0.23 | 0.173 | 0.969 | 1.02 | 0.989 | 0.995 | 0.597
